Molecules are shown by their SMILES.

Series [1] has as its target T1, MDR1 P-glycoprotein (P-gp) (Homo sapiens, UniProt P08183).
T1 construct: host or cells: MDCK (MDCK-MDR1)
Briefly: Transporter assay, bi-directional transport, MDCK-MDR1 cells. The note with it: human, MDCK-MDR1, 0.1 uM, basolateral to apical / apical to basolateral, >2 = substrate, read-out: PGP (efflux ratio). The series is classed as in vitro ADME. As for the experimental part:
(§1) Compounds were assessed as substrates of MDR1 P-glycoprotein (P-gp) and mouse Breast Cancer Resistance Protein (mBcrp) at 0.1 uM, for 2 hours, in bi-directional transport assays using recombinant MDCK cell lines as described previously (Feng et al. Drug Metabolism and Disposition 2008, Vol. 36:268-275). MDCK-MDR1 and MDCK-mBcrp cells were acquired from the National Institutes of Health (Bethesda, MID) and the Netherlands Cancer Institute respectively, and used under license agreement. Data are expressed as efflux ratios, where transport across the cell monolayer in the basolateral to apical direction is divided by transport in the apical to basolateral direction. Efflux ratios >2 indicate the test compound is a substrate of the transporter tested.

Series [2] has as its target T2, mouse Breast Cancer Resistance Protein (mBcrp) (Mus musculus, UniProt Q7TMS5).
T2 construct: host or cells: MDCK (MDCK-mBcrp)
T2 sequence (Q7TMS5 1-657): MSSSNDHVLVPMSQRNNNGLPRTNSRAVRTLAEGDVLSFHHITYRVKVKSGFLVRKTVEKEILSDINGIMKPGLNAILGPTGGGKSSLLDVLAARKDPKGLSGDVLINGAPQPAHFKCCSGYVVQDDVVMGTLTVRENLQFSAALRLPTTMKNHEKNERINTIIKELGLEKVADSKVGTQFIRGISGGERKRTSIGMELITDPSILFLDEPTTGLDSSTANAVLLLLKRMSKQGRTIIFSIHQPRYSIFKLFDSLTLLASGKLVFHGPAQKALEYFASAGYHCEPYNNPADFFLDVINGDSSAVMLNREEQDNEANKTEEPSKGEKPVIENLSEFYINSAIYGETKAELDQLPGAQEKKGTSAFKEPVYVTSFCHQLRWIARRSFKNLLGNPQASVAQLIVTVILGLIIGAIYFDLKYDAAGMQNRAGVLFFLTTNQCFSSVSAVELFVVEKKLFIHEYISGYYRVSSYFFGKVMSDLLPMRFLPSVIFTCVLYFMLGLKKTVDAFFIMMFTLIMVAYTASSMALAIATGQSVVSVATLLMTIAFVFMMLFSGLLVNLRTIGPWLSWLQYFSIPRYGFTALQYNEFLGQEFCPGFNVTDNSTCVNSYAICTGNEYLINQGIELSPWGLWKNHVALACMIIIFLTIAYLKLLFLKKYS
Briefly: Transporter assay, bi-directional transport, MDCK-mBcrp cells. The format is in vitro ADME. The note with it: mouse, basolateral to apical / apical to basolateral, >2 = substrate, read-out: BCRP (efflux ratio). As for the experimental part: as §1

In the next series the test system is hWB. Put plainly: hWB. Conditions: printed as "hWB" value in the pMLKL IC50 column; no method given. The series is classed as cell-based.

T1 sequence (P08183 whole entry): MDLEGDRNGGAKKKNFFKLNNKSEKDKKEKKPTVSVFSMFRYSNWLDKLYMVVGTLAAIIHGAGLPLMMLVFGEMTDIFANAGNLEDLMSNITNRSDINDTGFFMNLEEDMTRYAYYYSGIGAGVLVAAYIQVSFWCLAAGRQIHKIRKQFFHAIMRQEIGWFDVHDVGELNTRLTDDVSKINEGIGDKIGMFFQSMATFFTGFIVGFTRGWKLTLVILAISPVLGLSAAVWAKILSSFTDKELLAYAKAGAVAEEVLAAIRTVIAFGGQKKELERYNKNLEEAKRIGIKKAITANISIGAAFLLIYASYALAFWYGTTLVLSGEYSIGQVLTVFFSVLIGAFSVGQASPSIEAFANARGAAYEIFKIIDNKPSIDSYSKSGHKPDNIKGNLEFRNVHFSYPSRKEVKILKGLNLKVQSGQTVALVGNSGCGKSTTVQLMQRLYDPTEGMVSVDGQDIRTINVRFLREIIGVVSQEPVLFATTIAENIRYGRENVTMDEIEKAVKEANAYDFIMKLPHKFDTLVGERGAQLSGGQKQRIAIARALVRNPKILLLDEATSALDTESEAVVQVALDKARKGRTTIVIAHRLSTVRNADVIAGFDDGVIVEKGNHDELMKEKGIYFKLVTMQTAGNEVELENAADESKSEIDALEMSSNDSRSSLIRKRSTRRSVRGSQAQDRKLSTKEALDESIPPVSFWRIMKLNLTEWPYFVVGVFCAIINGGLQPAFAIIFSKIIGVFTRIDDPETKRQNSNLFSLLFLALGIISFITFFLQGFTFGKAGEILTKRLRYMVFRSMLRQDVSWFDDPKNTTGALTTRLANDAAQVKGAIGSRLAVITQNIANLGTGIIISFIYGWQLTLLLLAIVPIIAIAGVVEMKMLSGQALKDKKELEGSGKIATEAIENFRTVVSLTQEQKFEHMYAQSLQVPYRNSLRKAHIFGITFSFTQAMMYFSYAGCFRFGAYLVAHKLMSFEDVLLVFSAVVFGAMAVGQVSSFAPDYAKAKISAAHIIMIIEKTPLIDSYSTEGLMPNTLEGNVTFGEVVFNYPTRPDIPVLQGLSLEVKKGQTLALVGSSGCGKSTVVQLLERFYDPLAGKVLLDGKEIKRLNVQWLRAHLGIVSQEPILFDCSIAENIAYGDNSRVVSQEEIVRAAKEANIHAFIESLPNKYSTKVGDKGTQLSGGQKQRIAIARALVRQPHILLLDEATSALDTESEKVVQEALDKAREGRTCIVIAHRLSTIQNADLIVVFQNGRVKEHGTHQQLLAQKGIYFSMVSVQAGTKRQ

For `CC(O)(c1ccc(F)cc1)C(F)(F)CCOc1c(F)c(F)cc(-c2ccn3nc(N)nc3c2)c1F` (single isomer, unassigned) [Example 30, 5-(3-(2-amino-[1,2,4]triazolo[1,5-a]pyridin-7-yl)-2,5,6-trifluorophenoxy)-3,3-difluoro-2-(4-fluorophenyl)pentan-2-ol], the efflux ratio at 2 h, 0.1 uM in series [1] was found to be 2.5; in series [2], 3. The compound also yielded an IC50 with hWB of 8 nM.
